Measured values published in patent US10047083B2, “Dihydropyrimidinoisoquinolinones and pharmaceutical compositions thereof for the treatment of inflammatory disorders” (GALAPAGOS NV, priority 2011, dated 2018).

Columns and labels:
[1] = tested on: human neutrophils; experiment: Human neutrophil migration assay (embelin-induced); assay type: cell-based; details: neutrophils from human buffy coat, 30 min compound pre-incubation, migration towards embelin at EC80 for 1 h, ATPlite readout, read-out: human neutrophil migration inhibition (Neutrophils)
Experimental: 2. Cellular Assays 2.1. Human Neutrophil Migration Assay
The effect of agonists or antagonists for GPR84 can therefore be assayed in a neutrophil migration test. In the neutrophil migration assay, neutrophils, freshly isolated from buffy coats from human volunteers, are treated with a compound for 30 minutes. Subsequently, the neutrophils are transferred to the upper wells of a Corning HTS transwell 96 permeable support system, of which the lower wells are filled with a embelin solution at EC80 (concentration which gives 80% of the activity of GPR84). After 1 h of incubation, migration of the neutrophils towards embelin in the lower compartment can be quantified by measuring the ATP-content of the lower wells using the ATPlite luminescence ATP detection assay system (Perkin Elmer, Cat. No.: 436110).
A human buffy coat is diluted with an equal volume of ice cold DPBS. 20 mL of the diluted buffy coat is gently mixed with 4 mL of ACD buffer (140 mM citric acid, 200 mM sodium citrate and 220 mM dextrose). Then, 12 mL of the 6% dextran/0.9% NaCl solution (15 g dextran T2000 and 2.25 g NaCl dissolved in 250 mL H2O) is added to the mixture and the samples are inverted gently up to 20 times. The total volume was transferred to a new recipient and incubated at room temperature for 1 h for complete separation of the two phases to occur. The yellowish supernatant is then transferred to a clean centrifugation tube and centrifuged for 12 minutes at 1300 rpm and 4° C. After centrifugation, the supernatant is discarded and the remaining cell pellet is rapidly resuspended in 12 mL of ice-cold H2O for red blood cell lysis to occur. After 20 seconds, 4 mL of ice-cold 0.6 M KCl is added. Samples are mixed carefully and centrifuged for 6 minutes at 1300 rpm, 4° C. The supernatant is discarded and the red blood cell lysis procedure is repeated one more time. Subsequently, the cell pellet is resuspended in 4 mL of DPBS and layered over 5 mL of Lymphoprep (Nycomed Pharma, Cat. No.: 1114545) in a 15 mL centrifuge tube. After centrifugation for 12 min at 1300 rpm, 4° C., the supernatant is removed and the cell pellet, containing the neutrophils, is resuspended in 25 mL chemotaxis buffer (RPMI 1640 medium, supplemented with 10 mM HEPES; freshly made for each experiment)
A cell suspension of 8.9×10^6 cells per milliliter is prepared. 20 μL of compound solution in chemotaxis buffer is added to 180 μL cell suspension. The mixture is incubated at 37° C. for 30 minutes with intermediate resuspension of the cells after 15 minutes. Following this, 70 μL cell suspension is transferred to the upper compartment of a Corning HTS transwell 96 permeable support system with 5.0 μm pore size polycarbonate membrane (Corning, Cat. No.: 3387). The receiver well of the transwell system is then filled with 200 μL chemotaxis buffer containing compound and chemotactic agent (embelin). After incubation at 37° C. in 5% CO2 for 1 h, the upper plate of the transwell system is removed and the cell suspension in the receiver plate is transferred to a 96-well V-bottom plate. 50 μL of DPBS is added to the receiver plate to prevent remaining cells from drying out. The V-bottom plate is centrifuged for 6 minutes at 1500 rpm. The supernatant is removed and the cells are resuspended in 50 μL DPBS. The cells are then transferred back to the receiver plate of the transwell system. After this, 100 μL ATPlite solution (Perkin Elmer, Cat. No: 436110) was added to the cells. The plate is incubated for 10 minutes in the dark, while shaking. […] of cell lysate is then transferred to a white 96-well plate and luminescence is measured. The detected luminescent signal is considered as linearely related to the number of cells having migrated from the upper well to the receiver well.

[2] = molecular target: T1, GPR84 (Homo sapiens, UniProt Q9NQS5); experiment: GTPγS binding assay (GPR84); assay type: biochemical; details: membranes from stable cell line over expressing GPR84; 3,3′ di indolylmethane at EC80
T1 construct: expressed in transfected cells; membranes used
T1 sequence (Q9NQS5 whole entry): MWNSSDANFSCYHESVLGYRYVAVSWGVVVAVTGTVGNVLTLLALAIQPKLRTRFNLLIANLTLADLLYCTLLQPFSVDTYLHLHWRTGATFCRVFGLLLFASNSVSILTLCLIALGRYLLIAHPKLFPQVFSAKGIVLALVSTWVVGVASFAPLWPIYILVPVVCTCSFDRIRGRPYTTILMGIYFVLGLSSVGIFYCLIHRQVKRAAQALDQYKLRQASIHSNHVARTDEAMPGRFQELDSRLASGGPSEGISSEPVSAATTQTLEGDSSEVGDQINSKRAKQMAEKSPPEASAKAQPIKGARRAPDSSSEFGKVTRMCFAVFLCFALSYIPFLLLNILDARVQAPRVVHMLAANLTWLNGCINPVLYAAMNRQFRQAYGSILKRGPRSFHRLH
Summary of the method: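 Membranes (20 μg/well) from a stable GPR84-overexpressing line, pre-incubated with 0.1 μM GDP for 15 min at 4° C, mixed with 0.1 nM [35S]GTPγS and WGA SpA beads in 20 mM HEPES pH 7.4, 5 mM MgCl2, 250 mM NaCl, 0.05% BSA, 75 ug/mL saponin; 90 min at room temperature, then scintillation counting.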

Row | IC50 [1] | IC50 [2] | SMILES
1 | 0.01 to 100 nM | 101 to 500 nM | COc1cccc(-c2ccc3c(c2)CCn2c-3cc(OCC3COCCO3)nc2=O)c1OC (stereo not shown) [Compound 63, 9-(2,3-dimethoxy-phenyl)-2-([1,4]dioxan-2-ylmethoxy)-6,7-dihydro-pyrimido[6,1-a]isoquinolin-4-one]
2 | 0.01 to 100 nM | 0.01 to 100 nM | O=c1nc(OCC2COCCO2)cc2n1CCc1cc(-c3ccc(N4CCCCC4)nc3)ccc1-2 (stereo not shown) [Compound 68, 2-([1,4]dioxan-2-ylmethoxy)-9-(3,4,5,6-tetrahydro-2H-[1,2′]bipyridinyl-5′-yl)-6,7-dihydro-pyrimido[6,1-a]isoquinolin-4-one]
3 | 0.01 to 100 nM | 0.01 to 100 nM | CCOc1ncccc1-c1ccc2c(c1)CCn1c-2cc(OCC2COCCO2)nc1=O (stereo not shown) [Compound 69, 2-([1,4]dioxan-2-ylmethoxy)-9-(2-ethoxy-pyridin-3-yl)-6,7-dihydro-pyrimido[6,1-a]isoquinolin-4-one]
4 | 0.01 to 100 nM | 0.01 to 100 nM | O=c1nc(OCC2COCCO2)cc2n1CCc1cc(OCc3noc(C4CC4)n3)ccc1-2 (stereo not shown) [Compound 77, 9-(5-cyclopropyl-[1,2,4]oxadiazol-3-ylmethoxy)-2-([1,4]dioxan-2-ylmethoxy)-6,7-dihydro-pyrimido[6,1-a]isoquinolin-4-one]
5 | 0.01 to 100 nM | 0.01 to 100 nM | CC(C)c1nc(COc2ccc3c(c2)CCn2c-3cc(OCC3COCCO3)nc2=O)no1 (stereo not shown) [Compound 80, 2-([1,4]dioxan-2-ylmethoxy)-9-(5-isopropyl-[1,2,4]oxadiazol-3-ylmethoxy)-6,7-dihydro-pyrimido[6,1-a]isoquinolin-4-one]
6 | 0.01 to 100 nM | 0.01 to 100 nM | CC(C)C#Cc1ccc2c(c1)CCn1c-2cc(OCC2COCCO2)nc1=O (stereo not shown) [Compound 83, 2-([1,4]dioxan-2-ylmethoxy)-9-(3-methyl-but-1-ynyl)-6,7-dihydro-pyrimido[6,1-a]isoquinolin-4-one]
7 | 0.01 to 100 nM | 101 to 500 nM | CCC(O)C#Cc1ccc2c(c1)CCn1c-2cc(OCC2COCCO2)nc1=O (stereo not shown) [Compound 89, 2-([1,4]dioxan-2-ylmethoxy)-9-(3-hydroxy-pent-1-ynyl)-6,7-dihydro-pyrimido[6,1-a]isoquinolin-4-one]
8 | 0.01 to 100 nM | 0.01 to 100 nM | CC(C)C(O)C#Cc1ccc2c(c1)CCn1c-2cc(OCC2COCCO2)nc1=O (stereo not shown) [Compound 90, 2-([1,4]Dioxan-2-ylmethoxy)-9-(3-hydroxy-4-methyl-pent-1-ynyl)-6,7-dihydro-pyrimido[6,1-a]isoquinolin-4-one]
9 | 0.01 to 100 nM | 0.01 to 100 nM | CCCC(O)C#Cc1ccc2c(c1)CCn1c-2cc(OCC2COCCO2)nc1=O (stereo not shown) [Compound 98, 2-([1,4]dioxan-2-ylmethoxy)-9-(3-hydroxy-hex-1-ynyl)-6,7-dihydro-pyrimido[6,1-a]isoquinolin-4-one]
10 | 0.01 to 100 nM | 0.01 to 100 nM | O=c1nc(OCC2COCCO2)cc2n1CCc1cc(C#CCNc3ccccc3)ccc1-2 (stereo not shown) [Compound 107, 2-([1,4]dioxan-2-ylmethoxy)-9-(3-phenylamino-prop-1-ynyl)-6,7-dihydro-pyrimido[6,1-a]isoquinolin-4-one]
11 | 0.01 to 100 nM | 0.01 to 100 nM | CC(C)C#Cc1ccc2c(c1)CCn1c-2cc(OC[C@@H]2COCCO2)nc1=O [Compound 112, 2-((S)-1-[1,4]dioxan-2-ylmethoxy)-9-(3-methyl-but-1-ynyl)-6,7-dihydro-pyrimido[6,1-a]isoquinolin-4-one]
12 | 0.01 to 100 nM | 0.01 to 100 nM | O=c1nc(OC[C@H]2COCCO2)cc2n1CCc1cc(CCC3CC3)ccc1-2 [Compound 114, 9-(2-cyclopropyl-ethyl)-2-((R)-1-[1,4]dioxan-2-ylmethoxy)-6,7-dihydro-pyrimido[6,1-a]isoquinolin-4-one]
13 | 0.01 to 100 nM | 101 to 500 nM | O=c1nc(OCC2COCCO2)cc2n1CCc1cc(CCC(O)c3cccnc3)ccc1-2 (stereo not shown) [Compound 116, 2-([1,4]dioxan-2-ylmethoxy)-9-(3-hydroxy-3-pyridin-3-yl-propyl)-6,7-dihydro-pyrimido[6,1-a]isoquinolin-4-one]
14 | 101 to 500 nM | 0.01 to 100 nM | CCCCCc1ccc2c(c1)CCn1c-2cc(OC[C@H]2COCCO2)nc1=O [Compound 121, 2-((R)-1-[1,4]dioxan-2-ylmethoxy)-9-pentyl-6,7-dihydro-pyrimido[6,1-a]isoquinolin-4-one]
15 | 0.01 to 100 nM | 0.01 to 100 nM | O=c1nc(OC[C@@H]2COCCO2)cc2n1CCc1cc(CCC3CC3)ccc1-2 [Compound 123, 9-(2-cyclopropyl-ethyl)-2-((S)-1-[1,4]dioxan-2-ylmethoxy)-6,7-dihydropyrimido[6,1-a]isoquinolin-4-one]
16 | 0.01 to 100 nM | 0.01 to 100 nM | CCC(C)(C)CNc1ccc2c(c1)CCn1c-2cc(OC[C@@H]2COCCO2)nc1=O [Compound 126, 9-(2,2-dimethyl-butylamino)-2-((S)-1-[1,4]dioxan-2-ylmethoxy)-6,7-dihydro-pyrimido[6,1-a]isoquinolin-4-one]
17 | 0.01 to 100 nM | 101 to 500 nM | COCCOCC#Cc1ccc2c(c1)CCn1c-2cc(OC[C@@H]2COCCO2)nc1=O [Compound 133, 2-((S)-1-[1,4]dioxan-2-ylmethoxy)-9-[3-(2-methoxy-ethoxy)-prop-1-ynyl]-6,7-dihydro-pyrimido[6,1-a]isoquinolin-4-one]
18 | 0.01 to 100 nM | 0.01 to 100 nM | O=c1nc(OC[C@@H]2COCCO2)cc2n1CCc1cc(OCC3CCCCO3)ccc1-2 (stereo partly drawn) [Compound 139, 2-((S)-1-[1,4]dioxan-2-ylmethoxy)-9-(tetrahydro-pyran-2-ylmethoxy)-6,7-dihydro-pyrimido[6,1-a]isoquinolin-4-one]
19 | 0.01 to 100 nM | 101 to 500 nM | CC(O)CCc1ccc2c(c1)CCn1c-2cc(OC[C@@H]2COCCO2)nc1=O (stereo partly drawn) [Compound 140, 2-((S)-1-[1,4]dioxan-2-ylmethoxy)-9-(3-hydroxy-butyl)-6,7-dihydro-pyrimido[6,1-a]isoquinolin-4-one]
20 | 0.01 to 100 nM | 0.01 to 100 nM | O=c1nc(OC[C@@H]2COCCO2)cc2n1CCc1cc(COCC3CCCC3)ccc1-2 [Compound 147, 9-cyclopentylmethoxymethyl-2-((S)-1-[1,4]dioxan-2-ylmethoxy)-6,7-dihydro-pyrimido[6,1-a]isoquinolin-4-one]
21 | 0.01 to 100 nM | 101 to 500 nM | CC(O)CCCc1ccc2c(c1)CCn1c-2cc(OC[C@@H]2COCCO2)nc1=O (stereo partly drawn) [Compound 150, 2-((S)-1-[1,4]dioxan-2-ylmethoxy)-9-(4-hydroxy-pentyl)-6,7-dihydro-pyrimido[6,1-a]isoquinolin-4-one]
22 | 0.01 to 100 nM | 101 to 500 nM | CC(C)(C)COc1ccc2c(c1)CCn1c-2cc(OC[C@@H]2COCCO2)nc1=O [Compound 158, 9-(2,2-dimethyl-propoxy)-2-((S)-1-[1,4]dioxan-2-ylmethoxy)-6,7-dihydro-pyrimido[6,1-a]isoquinolin-4-one]

Row | SMILES | IC50 [1] | IC50 [2]
23 | CC(C)(C)OCc1ccc2c(c1)CCn1c-2cc(OCC2COCCO2)nc1=O (stereo not shown) [Compound 72, 9-tert-butoxymethyl-2-([1,4]dioxan-2-ylmethoxy)-6,7-dihydro-pyrimido[6,1-a]isoquinolin-4-one] | 0.01 to 100 nM | 0.01 to 100 nM
